Test results from US10959432B2, “Microbiocidal oxadiazole derivatives” (Syngenta Participations AG, priority 2016, dated 2021).

Experiments:
Uromyces viciae-fabae = assay: Fungicidal activity against Uromyces viciae-fabae / field bean / leaf disc preventative (faba-bean rust); assay type: in vivo; conditions: foliar, 288 h, 100 ppm in the applied formulation, field bean leaf discs, preventative (inoculated two hours after application), assessed 12 days after application, read-out: disease control compared to untreated control leaf discs
In short: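 Field bean leaf discs on water agar treated with 10 μl compound in acetone plus spreader, then spray-inoculated on the lower surface with Uromyces viciae-fabae spores 2 h later. Incubation at 22 °C, 18 h day, 70% RH; percent disease control versus untreated scored 12 days after application, compounds at 100 ppm.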

Phakopsora pachyrhizi = assay: Fungicidal activity against Phakopsora pachyrhizi / soybean / leaf disc preventative (Asian soybean rust); assay type: in vivo; conditions: foliar, 200 ppm in the applied formulation, soybean leaf disks, preventative (inoculated one day after application), assessed 12 to 14 days after application, read-out: disease control compared to untreated control leaf disks
In short: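 Soybean leaf discs on water agar sprayed with formulated compound diluted in water; spore suspension sprayed on lower leaf surface one day later. Incubated 24-36 h dark at 20° C, 75% rh, then 20° C, 12 h light/day, 75% rh. Percent disease control versus untreated scored 12 to 14 days after application.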

[1] = system: Puccinia recondita f. sp. tritici; assay: Fungicidal activity against Puccinia recondita f. sp. tritici / wheat / leaf disc preventative (brown rust); assay type: in vivo; conditions: foliar, 200 ppm in the applied formulation, wheat leaf segments cv. Kanzler, preventative (inoculated 1 day after application), assessed 7 to 9 days after application, read-out: disease control compared to untreated control leaf disks
In short: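 Wheat cv. Kanzler leaf segments on agar sprayed with formulated compound diluted in water, inoculated with P. recondita spores 1 day later. Incubated at 19C, 75% rh, 12 h light/12 h dark; scored 7 to 9 days after application as percent disease control versus untreated segments. Test rate 200 ppm.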

[2] = system: Glomerella laqenarium (Colletotrichum lagenarium); assay: Fungicidal activity against Glomerella lagenarium (Colletotrichum lagenarium) liquid culture / cucumber / preventative (anthracnose); assay type: cell-based; conditions: Colletotrichum orbiculare; 20 ppm in the applied formulation; liquid culture in PDB, 24° C., 3 to 4 days after application; read-out: disease control compared to untreated control (inhibition of growth measured photometrically)
In short: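 Cryostored conidia mixed into potato dextrose broth and added to test compound (from DMSO solution) in microtiter plates. Incubated at 24 °C; growth inhibition read photometrically 3 to 4 days after application, as percent activity versus untreated check.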

[3] = system: Puccinia recondita f. sp. tritici; assay: Fungicidal activity against Puccinia recondita f. sp. tritici / wheat / leaf disc curative (brown rust); assay type: in vivo; conditions: foliar, 200 ppm in the applied formulation, wheat leaf segments cv. Kanzler, curative (applied 1 day after inoculation), assessed 6 to 8 days after application, read-out: disease control compared to untreated control leaf disks
In short: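 Wheat cv. Kanzler leaf segments on agar, spore-inoculated, held dark at 19° C./75% RH; formulated compound in water sprayed 1 day post-inoculation (curative). Incubated 19° C., 75% RH, 12 h light/12 h dark; percent disease control vs untreated scored 6 to 8 days after application.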

## COc1ccc(CNC(=O)c2ccc(-c3noc(C(F)(F)F)n3)cc2)cc1 [Compound 4a.3, N-[(4-methoxyphenyl)methyl]-4-[5-(trifluoromethyl)-1,2,4-oxadiazol-3-yl]benzamide]
Uromyces viciae-fabae
  pest or weed control at 100 ppm: ≥ 80%
Phakopsora pachyrhizi
  pest or weed control at 200 ppm: ≥ 80%
other
  melting point: 154 to 159 °C
[1]
  pest or weed control at 200 ppm: ≥ 80%
[2]
  inhibition at 20 ppm: ≥ 80%

## O=C(NCc1ncc(C(F)(F)F)cc1Cl)c1ccc(-c2noc(C(F)(F)F)n2)cc1F [Compound 5b.4, N-[[3-chloro-5-(trifluoromethyl)-2-pyridyl]methyl]-2-fluoro-4-[5-(trifluoromethyl)-1,2,4-oxadiazol-3-yl]benzamide]
Uromyces viciae-fabae
  pest or weed control at 100 ppm: ≥ 80%
Phakopsora pachyrhizi
  pest or weed control at 200 ppm: ≥ 80%
other
  melting point: 126.6 to 128.3 °C

## O=C(NCCc1ncc(C(F)(F)F)cc1Cl)c1ccc(-c2noc(C(F)(F)F)n2)cc1F [Compound 5b.5, N-[2-[3-chloro-5-(trifluoromethyl)-2-pyridyl]ethyl]-2-fluoro-4-[5-(trifluoromethyl)-1,2,4-oxadiazol-3-yl]benzamide]
Uromyces viciae-fabae
  pest or weed control at 100 ppm: ≥ 80%
Phakopsora pachyrhizi
  pest or weed control at 200 ppm: ≥ 80%
other
  melting point: 144.9 to 146.5 °C

## O=C(NCc1cccc(F)c1)c1ccc(-c2noc(C(F)(F)F)n2)cc1F [Compound 4b.4, 2-fluoro-N-[(3-fluorophenyl)methyl]-4-[5-(trifluoromethyl)-1,2,4-oxadiazol-3-yl]benzamide]
Uromyces viciae-fabae
  pest or weed control at 100 ppm: ≥ 80%
Phakopsora pachyrhizi
  pest or weed control at 200 ppm: ≥ 80%
other
  melting point: 129.4 to 130.9 °C
[1]
  pest or weed control at 200 ppm: ≥ 80%

## O=C(NCC1CCCC1)c1ccc(-c2noc(C(F)(F)F)n2)cc1F [Compound 2b.8, N (cyclopentylmethyl)-2-fluoro-4-[5-(trifluoromethyl)-1,2,4-oxadiazol-3-yl]benzamide]
Uromyces viciae-fabae
  pest or weed control at 100 ppm: ≥ 80%
Phakopsora pachyrhizi
  pest or weed control at 200 ppm: ≥ 80%
other
  melting point: 122 to 125.6 °C
[2]
  inhibition at 20 ppm: ≥ 80%

## CC(NC(=O)c1ccc(-c2noc(C(F)(F)F)n2)cc1F)c1ccccc1 (stereo not shown) [Compound 4b.3, 2-fluoro-N-(1-phenylethyl)-4-[5-(trifluoromethyl)-1,2,4-oxadiazol-3-yl]benzamide]
Uromyces viciae-fabae
  pest or weed control at 100 ppm: ≥ 80%
Phakopsora pachyrhizi
  pest or weed control at 200 ppm: ≥ 80%
other
  melting point: 121.1 to 123.7 °C
[1]
  pest or weed control at 200 ppm: ≥ 80%

## O=C(NCc1nccs1)c1ccc(-c2noc(C(F)(F)F)n2)cc1F [Compound 5b.19, 2-fluoro-N-(thiazol-2-ylmethyl)-4-[5-(trifluoromethyl)-1,2,4-oxadiazol-3-yl]benzamide]
[3]
  pest or weed control at 200 ppm: ≥ 80%
Uromyces viciae-fabae
  pest or weed control at 100 ppm: ≥ 80%
Phakopsora pachyrhizi
  pest or weed control at 200 ppm: ≥ 80%
[1]
  pest or weed control at 200 ppm: ≥ 80%
[2]
  inhibition at 20 ppm: ≥ 80%

## CC(COC(F)F)NC(=O)c1ccc(-c2noc(C(F)(F)F)n2)cc1 (stereo not shown) [Compound 3a.43, N-[2-(difluoromethoxy)-1-methyl-ethyl]-4-[5-(trifluoromethyl)-1,2,4-oxadiazol-3-yl]benzamide]
[3]
  pest or weed control at 200 ppm: ≥ 80%
Phakopsora pachyrhizi
  pest or weed control at 200 ppm: ≥ 80%
other
  melting point: 128 to 130 °C
[1]
  pest or weed control at 200 ppm: ≥ 80%
[2]
  inhibition at 20 ppm: ≥ 80%

## CN(Cc1cccs1)C(=O)c1ccc(-c2noc(C(F)(F)F)n2)cc1F [Compound 5b.2, 2-fluoro-N-methyl-N-(2-thienylmethyl)-4-[5-(trifluoromethyl)-1,2,4-oxadiazol-3-yl]benzamide]
[3]
  pest or weed control at 200 ppm: ≥ 80%
Uromyces viciae-fabae
  pest or weed control at 100 ppm: ≥ 80%
Phakopsora pachyrhizi
  pest or weed control at 200 ppm: ≥ 80%
[1]
  pest or weed control at 200 ppm: ≥ 80%
[2]
  inhibition at 20 ppm: ≥ 80%

## O=C(NC1CCCC1(F)F)c1ccc(-c2noc(C(F)(F)F)n2)cc1 (stereo not shown) [Compound 2a.9, N-(2,2-difluorocyclopentyl)-4-[5-(trifluoromethyl)-1,2,4-oxadiazol-3-yl]benzamide]
[3]
  pest or weed control at 200 ppm: ≥ 80%
Uromyces viciae-fabae
  pest or weed control at 100 ppm: ≥ 80%
Phakopsora pachyrhizi
  pest or weed control at 200 ppm: ≥ 80%
[1]
  pest or weed control at 200 ppm: ≥ 80%
[2]
  inhibition at 20 ppm: ≥ 80%

## CN(Cc1ccccc1F)C(=O)c1ccc(-c2noc(C(F)(F)F)n2)cc1F [Compound 4b.9, 2-fluoro-N-[(2-fluorophenyl)methyl]-N-methyl-4-[5-(trifluoromethyl)-1,2,4-oxadiazol-3-yl]benzamide]
[3]
  pest or weed control at 200 ppm: ≥ 80%
Uromyces viciae-fabae
  pest or weed control at 100 ppm: ≥ 80%
Phakopsora pachyrhizi
  pest or weed control at 200 ppm: ≥ 80%
[1]
  pest or weed control at 200 ppm: ≥ 80%
[2]
  inhibition at 20 ppm: ≥ 80%

## CN(Cc1ccc(Cl)nc1)C(=O)c1ccc(-c2noc(C(F)(F)F)n2)cc1 [Compound 5a.9, N-[(6-chloro-3-pyridyl)methyl]-N-methyl-4-[5-(trifluoromethyl)-1,2,4-oxadiazol-3-yl]benzamide]
[3]
  pest or weed control at 200 ppm: ≥ 80%
Uromyces viciae-fabae
  pest or weed control at 100 ppm: ≥ 80%
Phakopsora pachyrhizi
  pest or weed control at 200 ppm: ≥ 80%
[1]
  pest or weed control at 200 ppm: ≥ 80%
[2]
  inhibition at 20 ppm: ≥ 80%

## COc1ccc(CNC(=O)c2ccc(-c3noc(C(F)(F)F)n3)cc2)c(OC)c1 [Compound 4a.13, N-[(2,4-dimethoxyphenyl)methyl]-4-[5-(trifluoromethyl)-1,2,4-oxadiazol-3-yl]benzamide]
[3]
  pest or weed control at 200 ppm: ≥ 80%
Uromyces viciae-fabae
  pest or weed control at 100 ppm: ≥ 80%
Phakopsora pachyrhizi
  pest or weed control at 200 ppm: ≥ 80%
[1]
  pest or weed control at 200 ppm: ≥ 80%
[2]
  inhibition at 20 ppm: ≥ 80%

## O=C(NCC1CC(F)(F)C1(F)F)c1ccc(-c2noc(C(F)(F)F)n2)cc1F (stereo not shown) [Compound 2b.4, 2-fluoro-N-[(2,2,3,3-tetrafluorocyclobuty)methyl]-4-[5-(trifluoromethyl)-1,2,4-oxadiazol-3-yl]benzamide]
[3]
  pest or weed control at 200 ppm: ≥ 80%
Uromyces viciae-fabae
  pest or weed control at 100 ppm: ≥ 80%
Phakopsora pachyrhizi
  pest or weed control at 200 ppm: ≥ 80%
[1]
  pest or weed control at 200 ppm: ≥ 80%
[2]
  inhibition at 20 ppm: ≥ 80%

## O=C(NCc1ccco1)c1ccc(-c2noc(C(F)(F)F)n2)cc1Cl [Compound 5b.17, 2-chloro-N-(2-furylmethyl)-4-[5-(trifluoromethyl)-1,2,4-oxadiazol-3-yl]benzamide]
[3]
  pest or weed control at 200 ppm: ≥ 80%
Uromyces viciae-fabae
  pest or weed control at 100 ppm: ≥ 80%
Phakopsora pachyrhizi
  pest or weed control at 200 ppm: ≥ 80%
[1]
  pest or weed control at 200 ppm: ≥ 80%
[2]
  inhibition at 20 ppm: ≥ 80%

## CN(CC1COCCO1)C(=O)c1ccc(-c2noc(C(F)(F)F)n2)cc1F (stereo not shown) [Compound 1b.9, N-(1,4-dioxan-2-ylmethyl)-2-fluoro-N-methyl-4-[5-(trifluoromethyl)-1,2,4-oxadiazol-3-yl]benzamide]
[3]
  pest or weed control at 200 ppm: ≥ 80%
Uromyces viciae-fabae
  pest or weed control at 100 ppm: ≥ 80%
Phakopsora pachyrhizi
  pest or weed control at 200 ppm: ≥ 80%
[1]
  pest or weed control at 200 ppm: ≥ 80%
[2]
  inhibition at 20 ppm: ≥ 80%

## CC(NC(=O)c1ccc(-c2noc(C(F)(F)F)n2)cc1F)C1CC1 (stereo not shown) [Compound 2b.5, N-(1-cyclopropylethyl)-2-fluoro-4-[5-(trifluoromethyl)-1,2,4-oxadiazol-3-yl]benzamide]
[3]
  pest or weed control at 200 ppm: ≥ 80%
Uromyces viciae-fabae
  pest or weed control at 100 ppm: ≥ 80%
Phakopsora pachyrhizi
  pest or weed control at 200 ppm: ≥ 80%
[1]
  pest or weed control at 200 ppm: ≥ 80%
[2]
  inhibition at 20 ppm: ≥ 80%

## Cc1ccc(CNC(=O)c2ccc(-c3noc(C(F)(F)F)n3)cc2)cc1 [Compound 4a.1, N-(p-tolylmethyl)-4-[5-(trifluoromethyl)-1,2,4-oxadiazol-3-yl]benzamide]
Uromyces viciae-fabae
  pest or weed control at 100 ppm: ≥ 80%
Phakopsora pachyrhizi
  pest or weed control at 200 ppm: ≥ 80%
other
  melting point: 198 to 203 °C
[2]
  inhibition at 20 ppm: ≥ 80%

## O=C(NCc1nccs1)c1ccc(-c2noc(C(F)(F)F)n2)cc1 [Compound 5a.10, N-(thiazol-2-ylmethyl)-4-[5-(trifluoromethyl)-1,2,4-oxadiazol-3-yl]benzamide]
[3]
  pest or weed control at 200 ppm: ≥ 80%
Uromyces viciae-fabae
  pest or weed control at 100 ppm: ≥ 80%
Phakopsora pachyrhizi
  pest or weed control at 200 ppm: ≥ 80%
[1]
  pest or weed control at 200 ppm: ≥ 80%
[2]
  inhibition at 20 ppm: ≥ 80%

## O=C(NCCOC(F)F)c1ccc(-c2noc(C(F)(F)F)n2)cc1 [Compound 3a.45, N-[2-(difluoromethoxy)ethyl]-4-[5-(trifluoromethyl)-1,2,4-oxadiazol-3-yl]benzamide]
[3]
  pest or weed control at 200 ppm: ≥ 80%
Phakopsora pachyrhizi
  pest or weed control at 200 ppm: ≥ 80%
other
  melting point: 117 to 120 °C
[1]
  pest or weed control at 200 ppm: ≥ 80%
[2]
  inhibition at 20 ppm: ≥ 80%

## O=C(NC1CCC1)c1ccc(-c2noc(C(F)(F)F)n2)cc1F [Compound 2b.3, N-cyclobutyl-2-fluoro-4-[5-(trifluoromethyl)-1,2,4-oxadiazol-3-yl]benzamide]
[3]
  pest or weed control at 200 ppm: ≥ 80%
Uromyces viciae-fabae
  pest or weed control at 100 ppm: ≥ 80%
Phakopsora pachyrhizi
  pest or weed control at 200 ppm: ≥ 80%
[1]
  pest or weed control at 200 ppm: ≥ 80%
[2]
  inhibition at 20 ppm: ≥ 80%
